From PubChem BioAssay AID1963864 (Molecular Pharmacology Branch, DTP, NCI, 2024)

Tested on: KRAS PDC multicell spheroid viability
Experiment: Anticancer human tumor 521955-158-R6-J3-PDC patient-derived pancreatic carcinoma cell line growth inhibition [KRAS2]
Conditions: for IC50: curve of first compound; for viability, T/C: stronger effect = lower value
Summary of the method: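 KRAS-mutant tumor cells were grown as spheroids with HUVEC endothelial cells and human MSCs as stroma. Targeted agents were tested alone and with KRAS pathway inhibitors. Doses started at or near clinical Cmax, or 10 microM, descending half-log.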

[1] = second compound 0.1 µM, first compound 0.000316 µM
[2] = second compound 0.1 µM, first compound 0.001 µM
[3] = second compound 0.1 µM, first compound 0.00316 µM
[4] = second compound 0.1 µM, first compound 0.01 µM
[5] = second compound 0.1 µM, first compound 0.0316 µM
[6] = second compound 0.316 µM, first compound 0.000316 µM
[7] = second compound 0.316 µM, first compound 0.001 µM
[8] = second compound 0.316 µM, first compound 0.00316 µM
[9] = second compound 0.316 µM, first compound 0.01 µM
[10] = second compound 0.316 µM, first compound 0.0316 µM
[11] = second compound 1 µM, first compound 0.000316 µM
[12] = second compound 1 µM, first compound 0.001 µM
[13] = second compound 1 µM, first compound 0.00316 µM
[14] = second compound 1 µM, first compound 0.01 µM
[15] = second compound 1 µM, first compound 0.0316 µM
[16] = second compound 3.16 µM, first compound 0.000316 µM
[17] = second compound 3.16 µM, first compound 0.001 µM
[18] = second compound 3.16 µM, first compound 0.00316 µM
[19] = second compound 3.16 µM, first compound 0.01 µM
[20] = second compound 3.16 µM, first compound 0.0316 µM
[21] = second compound 10 µM, first compound 0.000316 µM
[22] = second compound 10 µM, first compound 0.001 µM
[23] = second compound 10 µM, first compound 0.00316 µM
[24] = second compound 10 µM, first compound 0.01 µM
[25] = second compound 10 µM, first compound 0.0316 µM
[26] = second compound 0.1 µM, first compound 0.1 µM
[27] = second compound 0.316 µM, first compound 0.1 µM
[28] = second compound 1 µM, first compound 0.1 µM
[29] = second compound 3.16 µM, first compound 0.1 µM
[30] = second compound 10 µM, first compound 0.1 µM
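Note: drug exposure lasted seven days.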
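Throughout, for viability, T/C: 100% = DMSO vehicle wells and lower means fewer viable cells.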

**Q.** CC(=O)Nc1cccc(-n2c(=O)n(C3CC3)c(=O)c3c(Nc4ccc(I)cc4F)n(C)c(=O)c(C)c32)c1 + CC1OCC2(CCN(c3cnc(Sc4ccnc(N)c4Cl)c(N)n3)CC2)C1N was tested. Which IC50 (second compound 0.1 µM) did it give?
**A.** Its IC50 is 18.9 nM.

**Q.** And the IC50 (second compound 0.316 µM)?
**A.** The IC50 was 12.5 nM.

**Q.** And the IC50 (second compound 1 µM)?
**A.** The IC50 was 5.43 nM.

**Q.** What about the IC50 (second compound 3.16 µM) of the same molecule?
**A.** The IC50 was 2.44 nM.

**Q.** And the IC50 (second compound 10 µM)?
**A.** Its IC50 is 2.24 nM.

**Q.** What about the viability, T/C (second compound 0.1 µM, first compound 0.0001 µM) of the same molecule?
**A.** Its viability, T/C is 87.8%.

**Q.** What about the viability, T/C [1] of the same molecule?
**A.** The viability, T/C was 82.8%.

**Q.** What about the viability, T/C [2] of the same molecule?
**A.** The viability, T/C was 91.2%.

**Q.** And the viability, T/C [3]?
**A.** The viability, T/C was 83.5%.

**Q.** And the viability, T/C [4]?
**A.** Its viability, T/C is 56.7%.

**Q.** What about the viability, T/C [5] of the same molecule?
**A.** The viability, T/C was 44.6%.

**Q.** And the viability, T/C (second compound 0.316 µM, first compound 0.0001 µM)?
**A.** The viability, T/C was 83.2%.

**Q.** What about the viability, T/C [6] of the same molecule?
**A.** Its viability, T/C is 85.7%.

**Q.** And the viability, T/C [7]?
**A.** The viability, T/C was 77.2%.

**Q.** What about the viability, T/C [8] of the same molecule?
**A.** Its viability, T/C is 65%.

**Q.** What about the viability, T/C [9] of the same molecule?
**A.** The viability, T/C was 55.7%.

**Q.** And the viability, T/C [10]?
**A.** The viability, T/C was 33.7%.

**Q.** What about the viability, T/C (second compound 1 µM, first compound 0.0001 µM) of the same molecule?
**A.** The viability, T/C was 103%.

**Q.** What about the viability, T/C [11] of the same molecule?
**A.** The viability, T/C was 87.6%.

**Q.** And the viability, T/C [12]?
**A.** The viability, T/C was 80.1%.

**Q.** What about the viability, T/C [13] of the same molecule?
**A.** The viability, T/C was 55.3%.

**Q.** What about the viability, T/C [14] of the same molecule?
**A.** Its viability, T/C is 41.8%.

**Q.** And the viability, T/C [15]?
**A.** Its viability, T/C is 27.8%.

**Q.** And the viability, T/C (second compound 3.16 µM, first compound 0.0001 µM)?
**A.** The viability, T/C was 105%.

**Q.** And the viability, T/C [16]?
**A.** Its viability, T/C is 90.7%.

**Q.** What about the viability, T/C [17] of the same molecule?
**A.** Its viability, T/C is 62.8%.

**Q.** And the viability, T/C [18]?
**A.** The viability, T/C was 47%.

**Q.** What about the viability, T/C [19] of the same molecule?
**A.** The viability, T/C was 34.9%.

**Q.** What about the viability, T/C [20] of the same molecule?
**A.** The viability, T/C was 28.6%.

**Q.** And the viability, T/C (second compound 10 µM, first compound 0.0001 µM)?
**A.** Its viability, T/C is 85.6%.

**Q.** What about the viability, T/C [21] of the same molecule?
**A.** The viability, T/C was 70.9%.

**Q.** And the viability, T/C [22]?
**A.** The viability, T/C was 67.4%.

**Q.** And the viability, T/C [23]?
**A.** The viability, T/C was 42.3%.

**Q.** And the viability, T/C [24]?
**A.** Its viability, T/C is 30.3%.

**Q.** And the viability, T/C [25]?
**A.** The viability, T/C was 23%.

**Q.** For O=C(c1cc(Cc2n[nH]c(=O)c3ccccc23)ccc1F)N1CCN(C(=O)C2CC2)CC1 + COc1cc2nc(C)nc(NC(C)c3cc(N)cc(C(F)(F)F)c3)c2cc1OC1CCOC1, which IC50 (second compound 0.1 µM) is on record?
**A.** Its IC50 is greater than 10000 nM.

**Q.** What about the IC50 (second compound 0.316 µM) of the same molecule?
**A.** Its IC50 is greater than 10000 nM.

**Q.** And the IC50 (second compound 1 µM)?
**A.** Its IC50 is greater than 10000 nM.

**Q.** What about the IC50 (second compound 3.16 µM) of the same molecule?
**A.** Its IC50 is greater than 10000 nM.

**Q.** And the IC50 (second compound 10 µM)?
**A.** The IC50 was greater than 10000 nM.

**Q.** And the viability, T/C [5]?
**A.** Its viability, T/C is 82.4%.

**Q.** And the viability, T/C [26]?
**A.** Its viability, T/C is 76.4%.

**Q.** And the viability, T/C (second compound 0.1 µM, first compound 0.316 µM)?
**A.** Its viability, T/C is 86.1%.

**Q.** What about the viability, T/C (second compound 0.1 µM, first compound 1 µM) of the same molecule?
**A.** Its viability, T/C is 75.5%.

**Q.** What about the viability, T/C (second compound 0.1 µM, first compound 3.16 µM) of the same molecule?
**A.** Its viability, T/C is 69.2%.

**Q.** And the viability, T/C (second compound 0.1 µM, first compound 10 µM)?
**A.** Its viability, T/C is 80.2%.

**Q.** And the viability, T/C [10]?
**A.** The viability, T/C was 88.9%.

**Q.** And the viability, T/C [27]?
**A.** The viability, T/C was 88.8%.

**Q.** What about the viability, T/C (second compound 0.316 µM, first compound 0.316 µM) of the same molecule?
**A.** Its viability, T/C is 80.5%.

**Q.** And the viability, T/C (second compound 0.316 µM, first compound 1 µM)?
**A.** Its viability, T/C is 70.5%.

**Q.** What about the viability, T/C (second compound 0.316 µM, first compound 3.16 µM) of the same molecule?
**A.** The viability, T/C was 67.1%.

**Q.** And the viability, T/C (second compound 0.316 µM, first compound 10 µM)?
**A.** The viability, T/C was 77.7%.

**Q.** And the viability, T/C [15]?
**A.** Its viability, T/C is 90.9%.

**Q.** What about the viability, T/C [28] of the same molecule?
**A.** The viability, T/C was 88.3%.

**Q.** And the viability, T/C (second compound 1 µM, first compound 0.316 µM)?
**A.** The viability, T/C was 97.1%.

**Q.** What about the viability, T/C (second compound 1 µM, first compound 1 µM) of the same molecule?
**A.** Its viability, T/C is 70.8%.

**Q.** What about the viability, T/C (second compound 1 µM, first compound 3.16 µM) of the same molecule?
**A.** The viability, T/C was 70.3%.

**Q.** And the viability, T/C (second compound 1 µM, first compound 10 µM)?
**A.** The viability, T/C was 83.5%.

**Q.** And the viability, T/C [20]?
**A.** The viability, T/C was 70.1%.

**Q.** What about the viability, T/C [29] of the same molecule?
**A.** Its viability, T/C is 75.6%.

**Q.** And the viability, T/C (second compound 3.16 µM, first compound 0.316 µM)?
**A.** The viability, T/C was 67.2%.

**Q.** What about the viability, T/C (second compound 3.16 µM, first compound 1 µM) of the same molecule?
**A.** The viability, T/C was 60.8%.

**Q.** What about the viability, T/C (second compound 3.16 µM, first compound 3.16 µM) of the same molecule?
**A.** Its viability, T/C is 63.6%.

**Q.** What about the viability, T/C (second compound 3.16 µM, first compound 10 µM) of the same molecule?
**A.** Its viability, T/C is 75.9%.

**Q.** What about the viability, T/C [25] of the same molecule?
**A.** Its viability, T/C is 55.4%.

**Q.** What about the viability, T/C [30] of the same molecule?
**A.** The viability, T/C was 59.5%.

**Q.** And the viability, T/C (second compound 10 µM, first compound 0.316 µM)?
**A.** Its viability, T/C is 55.9%.

**Q.** And the viability, T/C (second compound 10 µM, first compound 1 µM)?
**A.** The viability, T/C was 53.3%.

**Q.** And the viability, T/C (second compound 10 µM, first compound 3.16 µM)?
**A.** Its viability, T/C is 65.3%.

**Q.** And the viability, T/C (second compound 10 µM, first compound 10 µM)?
**A.** The viability, T/C was 77.4%.

**Q.** Which results are given for Cn1ncnc1[C@H]1c2n[nH]c(=O)c3cc(F)cc(c23)N[C@@H]1c1ccc(F)cc1 + CC1OCC2(CCN(c3cnc(Sc4ccnc(N)c4Cl)c(N)n3)CC2)C1N?
**A.** IC50 (second compound 0.1 µM): > 100 nM; IC50 (second compound 0.316 µM): > 100 nM; IC50 (second compound 1 µM): > 100 nM; IC50 (second compound 3.16 µM): > 100 nM; IC50 (second compound 10 µM): > 100 nM; viability, T/C [1]: 86.7%; viability, T/C [2]: 91%; viability, T/C [3]: 78.5%; viability, T/C [4]: 83.2%; viability, T/C [5]: 79.5%; viability, T/C [26]: 77.2%; viability, T/C [6]: 93.3%; viability, T/C [7]: 76.7%; viability, T/C [8]: 81.5%; viability, T/C [9]: 80.2%; viability, T/C [10]: 79.2%; viability, T/C [27]: 78.2%; viability, T/C [11]: 83.6%; viability, T/C [12]: 82%; viability, T/C [13]: 79%; viability, T/C [14]: 78%; viability, T/C [15]: 82.9%; viability, T/C [28]: 86.4%; viability, T/C [16]: 99.8%; viability, T/C [17]: 95.6%; viability, T/C [18]: 96.3%; viability, T/C [19]: 106%; viability, T/C [20]: 96.2%; viability, T/C [29]: 82%; viability, T/C [21]: 105%; viability, T/C [22]: 103%; viability, T/C [23]: 95%; viability, T/C [24]: 103%; viability, T/C [25]: 100%; viability, T/C [30]: 97.9%
